Reference: US20260266837A1, “Methods for Cancer Recurrence Detection and Treatment Thereof” (Institut Curie, priority 2022, published 2026)

Assays:
[1] = tested on: MDA-MB-468, BT20 and HCC38; assay: Number of persister cells after EZH2i pre-treatment and 5-FU; format: cell-based, human; settings: 10 days pre-treatment, then 5-FU for 21 days
Method: Cell lines, culture conditions and drug treatments. […] All cell lines were cultured in a humidified 5% CO2 atmosphere at 37° C., and were tested as mycoplasma negative. […] Cells were treated with 5 μM of 5-FU (Sigma, Ref: […]) alone or in combination with KDM6A/Bi or EZH2i for indicated days. […] Cell proliferation, doubling time and IC50. MDA-MB-468, HCC38 and BT20 cells were stained with Trypan Blue (Invitrogen, Ref: T10282) exclusion test, and counted using a Countess automated cell counter (Invitrogen, Ref: C10228) at indicated time of treatment (FIG. 4a and Extended FIG. 8a/d/f).

H3K27me3, EZH2 = target: T1, H3K27me3, EZH2 (Homo sapiens, UniProt Q15910); assay: Western blotting of EZH2i-treated cells; format: cell-based; settings: prior to chemotherapy treatment
T1 construct: endogenous in cells; host or cells: MDA-MB-468, HCC38 or BT20
T1 sequence (Q15910 whole entry): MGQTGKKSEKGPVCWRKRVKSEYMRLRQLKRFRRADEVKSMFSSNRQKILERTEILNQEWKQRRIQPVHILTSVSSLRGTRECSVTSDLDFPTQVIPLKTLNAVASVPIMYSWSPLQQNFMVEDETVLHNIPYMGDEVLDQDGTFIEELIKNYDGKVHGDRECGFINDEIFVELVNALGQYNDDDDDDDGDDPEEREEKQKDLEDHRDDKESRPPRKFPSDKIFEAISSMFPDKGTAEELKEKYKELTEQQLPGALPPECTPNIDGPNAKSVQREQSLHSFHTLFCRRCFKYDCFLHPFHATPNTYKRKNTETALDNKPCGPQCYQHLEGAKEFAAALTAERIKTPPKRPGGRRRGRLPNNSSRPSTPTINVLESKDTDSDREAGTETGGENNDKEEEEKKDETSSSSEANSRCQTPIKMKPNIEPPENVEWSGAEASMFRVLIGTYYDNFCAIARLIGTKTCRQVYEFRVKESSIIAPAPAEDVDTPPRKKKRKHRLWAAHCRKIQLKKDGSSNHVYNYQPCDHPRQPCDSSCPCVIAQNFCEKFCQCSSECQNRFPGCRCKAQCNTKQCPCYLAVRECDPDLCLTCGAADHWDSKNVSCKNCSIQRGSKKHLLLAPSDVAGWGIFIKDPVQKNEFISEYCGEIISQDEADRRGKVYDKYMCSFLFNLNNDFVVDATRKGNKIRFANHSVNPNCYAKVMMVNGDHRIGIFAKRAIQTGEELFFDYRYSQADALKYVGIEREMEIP
T1 sequence (O75530 whole entry partner): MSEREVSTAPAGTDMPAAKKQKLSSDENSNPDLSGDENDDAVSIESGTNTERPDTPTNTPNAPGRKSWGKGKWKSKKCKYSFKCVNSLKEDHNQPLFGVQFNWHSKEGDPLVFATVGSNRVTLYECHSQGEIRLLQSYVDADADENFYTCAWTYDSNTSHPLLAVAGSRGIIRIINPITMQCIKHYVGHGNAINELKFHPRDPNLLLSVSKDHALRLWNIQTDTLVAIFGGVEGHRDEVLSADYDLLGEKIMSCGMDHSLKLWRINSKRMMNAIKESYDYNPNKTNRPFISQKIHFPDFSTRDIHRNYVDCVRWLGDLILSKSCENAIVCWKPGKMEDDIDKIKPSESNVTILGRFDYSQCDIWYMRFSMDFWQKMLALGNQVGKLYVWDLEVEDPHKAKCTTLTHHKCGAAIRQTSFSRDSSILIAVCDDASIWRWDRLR
T1 sequence (Q15022 whole entry partner): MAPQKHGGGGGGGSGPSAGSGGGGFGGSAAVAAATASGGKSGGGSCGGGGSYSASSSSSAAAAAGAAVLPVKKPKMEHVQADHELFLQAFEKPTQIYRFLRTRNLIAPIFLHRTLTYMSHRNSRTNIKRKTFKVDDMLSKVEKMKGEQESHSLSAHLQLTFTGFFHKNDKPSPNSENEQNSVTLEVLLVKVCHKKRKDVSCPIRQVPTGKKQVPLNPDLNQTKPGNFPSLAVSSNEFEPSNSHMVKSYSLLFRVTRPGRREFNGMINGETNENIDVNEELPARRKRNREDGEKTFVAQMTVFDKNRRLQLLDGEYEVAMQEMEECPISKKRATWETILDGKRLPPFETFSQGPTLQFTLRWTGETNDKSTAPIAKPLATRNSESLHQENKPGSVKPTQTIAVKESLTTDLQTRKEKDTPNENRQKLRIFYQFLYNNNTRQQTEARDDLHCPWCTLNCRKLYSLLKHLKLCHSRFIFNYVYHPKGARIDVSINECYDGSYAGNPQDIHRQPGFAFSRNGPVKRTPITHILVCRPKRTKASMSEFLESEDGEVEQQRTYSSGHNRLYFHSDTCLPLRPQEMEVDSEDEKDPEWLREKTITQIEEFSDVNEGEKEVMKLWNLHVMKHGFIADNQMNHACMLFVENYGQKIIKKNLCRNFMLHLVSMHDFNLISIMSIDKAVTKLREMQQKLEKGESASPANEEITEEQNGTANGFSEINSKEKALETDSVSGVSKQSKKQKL
Method: Western blotting. In Extended FIG. 8b/e/g, DMSO- and EZH2i-treated cells were lysed at 95° C. for 10 minutes in Laemmli buffer (50 mM Tris-HCl [pH 6.8], 2% SDS, 5% glycerol, 2 mM DTT, 2.5 mM EDTA, 2.5 mM EGTA, 4 mM Sodium Orthovanadate, 20 mM Sodium Fluoride, protease inhibitors, phosphatase inhibitors) and proteins concentrations were measured using a Pierce BCA protein Assay Kit (Thermo Fisher Scientific, Ref: 23225/23227). 10 μg of proteins were then separated on a 4-15% Mini-PROTEAN TGX Stain-Free Gel (Bio-Rad, Ref: 4568085) at 160V. After transfer, the membrane was blocked for 1 h at room temperature in PBS pH 7.4 containing 0.1% Tween-20 and 1% milk (Regilait). Incubation anti-H3K27me3 (Dilution: 1:2000, Cell Signaling, Ref: 9733) or EZH2 (Dilution: 1:2000, Cell Signaling, Ref: 5246) or Tubulin (Dilution: 1:1000, Thermo Fisher Scientific, Ref: 31460) primary antibodies diluted in PBS pH 7.4, 0.1% Tween-20 were performed at 4° C. overnight.

MDA-MB-468 cells = assay: Lineage barcode frequencies and diversity under 5-FU with EZH2i; format: cell-based, human
From the text: Lentivirus packaging and cell transduction. Lentivirus was produced by transfecting the barcode plasmids pRRL-CMV-GFP-BCv2Ascl and p8.9-QV and pVSVG into HEK293T cells as previously described^30. MDA-MB-468 cells from ATCC were infected at passage 11 with lentivirus produced from the barcode library (pRRL-CMV-GFP-BCv 2Ascl) which includes 18206 different barcodes of 20 bp of a random stretch, at a low multiplicity of infection (MOI 0.1) to minimize the number of cells marked by multiple barcodes. Three weeks after transduction, cells were sorted for GFP expression to select cells with barcode insertion, and used for drug treatment.
Bulk lineage barcode library preparation and sequencing. Lineage barcodes are recovered by isolating genomic DNA from cells of interest (NucleoSpin Tissue, Mini kit for DNA from cells and tissue, Macherey Nagel, Ref: 740952.50). From the isolated genomic DNA, barcodes are amplified with three nested PCR steps as decribed in^30 (see Extended Table 1 for primer sequence). In short, after a first specific PCR for the common region of the lineage barcodes, the amplified material was prepared for sequencing by addition of the illumina sequencing adaptaters and indexing and purification. Sequencing was done in order to obtain 50 reads, on average, per barcoded cell.
Single-cell lineage barcode extraction from 10× datasets. […] To avoid running scripts on all reads we: 1. used samtools to extract all unmapped reads from the 10× output bam file, 2. used awk to take reads with either a 3′ or 5′ 20 bp match to the constant flanking region of the barcode allowing one mismatch, 3. retained only reads with both a 10× cell barcode and 10× UMI. We then located the 20 bp match to one of the constant flanking regions allowing one mismatch (but filtered out reads where a mismatch was in the first or last base to ensure the barcode is at the expected position). We then further required a 4 bp exact match on the other side of the barcode, and then extracted the 20 bp viral barcode, read name, 10× cell barcode and 10× UMI.
To assign one viral barcode to each 10× cell barcode, we determined a consensus viral barcode for each UMI. For each position in the barcode we returned the most frequently observed base and the proportion of reads supporting this consensus. Barcodes associated with a 10× CB-UMI pair were filtered if the proportion of reads supporting a position was ≤0.5 at ≥3 positions. […]
Bulk barcode pre-processing. […] In brief, using R-3.4.0 (R Development Core Team (2019) http://www.R-project.org), raw reads were first filtered for perfect to the input index-and common-sequences using XCALIBR (https://github.com/NKI-GCF/xcalibr) and filtered against the barcode reference list. […]

- EZH2 protein levels (H3K27me3, EZH2): without perturbing EZH2 protein levels
- H3K27me3 level (H3K27me3, EZH2): erasing H3K27me3
- correlation scores between lineage frequencies in 5-FU and DMSO treated population (MDA-MB-468 cells; co-treatment with 5-FU, bulk lineage barcodes): increased correlation scores
Structure (SMILES): CCCc1cc(C)[nH]c(=O)c1CNC(=O)c1cc(-c2ccc(N3CCN(C(C)C)CC3)nc2)cc2c1cnn2C(C)C [EZH2i-1]
- number of persister cells [1]: increased the number of persister cells
- diversity in lineage barcodes in CDH2+ persister populations (MDA-MB-468 cells; R3 cluster, 5-FU with versus without EZH2i-1, p<10^-4): over 2 fold-increase
